How the values were obtained:
Test in all cases: scanMAX KINOMEscan (Eurofins)
Format in all cases: binding
[1] = target: AURKC (Homo sapiens, UniProt Q9UQB9); conditions: 1000 nM, read-out: Percent Control
Description: (§1) Supplement cb5c00097_si_002.xlsx, sheet "Table S6 (Eurofins Selectivity)" | column: Percent Control

[2] = target: TIE1 (Homo sapiens, UniProt P35590); conditions: 1000 nM, read-out: Percent Control
Description: as §1

[3] = target: PRKCQ (Homo sapiens, UniProt Q04759); conditions: 1000 nM, read-out: Percent Control
Description: as §1

[4] = target: FER (Homo sapiens, UniProt P16591); conditions: 1000 nM, read-out: Percent Control
Description: as §1

[5] = target: ACVR2B (Homo sapiens, UniProt Q13705); conditions: 1000 nM, read-out: Percent Control
Description: as §1

[6] = target: BMPR1B (Homo sapiens, UniProt O00238); conditions: read-out: Percent Control
Sequence of BMPR1B (O00238 14-502): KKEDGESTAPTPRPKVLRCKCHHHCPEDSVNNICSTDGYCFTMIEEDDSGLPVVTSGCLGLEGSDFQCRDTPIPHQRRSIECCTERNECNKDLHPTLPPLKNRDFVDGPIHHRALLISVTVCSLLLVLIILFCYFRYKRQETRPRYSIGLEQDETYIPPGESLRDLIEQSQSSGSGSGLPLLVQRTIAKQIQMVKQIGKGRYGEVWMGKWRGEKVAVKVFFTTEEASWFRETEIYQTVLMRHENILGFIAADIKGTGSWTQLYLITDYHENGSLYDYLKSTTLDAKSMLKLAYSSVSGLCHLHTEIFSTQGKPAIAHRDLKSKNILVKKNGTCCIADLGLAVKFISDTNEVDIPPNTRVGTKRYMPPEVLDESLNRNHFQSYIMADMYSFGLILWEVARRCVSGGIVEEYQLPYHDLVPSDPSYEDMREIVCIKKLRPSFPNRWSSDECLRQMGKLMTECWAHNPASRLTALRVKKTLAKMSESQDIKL
Description: as §1

[7] = target: SRPK3 (Homo sapiens, UniProt Q9UPE1); conditions: compound concentration 100 nM; Entrez SRPK3; read-out: Percent Control
Sequence of SRPK3 (Q9UPE1 whole entry): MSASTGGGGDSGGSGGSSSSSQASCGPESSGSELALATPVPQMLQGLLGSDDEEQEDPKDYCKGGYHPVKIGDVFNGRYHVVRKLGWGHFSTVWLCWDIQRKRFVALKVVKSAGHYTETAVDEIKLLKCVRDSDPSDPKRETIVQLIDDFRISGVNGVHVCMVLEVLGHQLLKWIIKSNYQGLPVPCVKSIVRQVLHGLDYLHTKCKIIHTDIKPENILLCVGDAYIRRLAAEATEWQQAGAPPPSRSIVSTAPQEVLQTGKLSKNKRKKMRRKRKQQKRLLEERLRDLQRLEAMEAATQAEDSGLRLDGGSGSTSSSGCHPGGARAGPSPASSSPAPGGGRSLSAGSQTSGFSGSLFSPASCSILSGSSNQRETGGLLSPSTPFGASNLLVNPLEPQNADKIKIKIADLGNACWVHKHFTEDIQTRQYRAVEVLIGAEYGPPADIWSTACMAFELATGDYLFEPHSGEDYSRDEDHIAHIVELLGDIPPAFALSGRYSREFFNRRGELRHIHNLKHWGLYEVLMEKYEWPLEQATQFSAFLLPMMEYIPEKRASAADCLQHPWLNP
Description: as §1

[8] = target: LOK (Homo sapiens, UniProt O94804); conditions: 1000 nM, read-out: Percent Control
Description: as §1

[9] = target: PFTK1 (Homo sapiens, UniProt O94921); conditions: 1000 nM, read-out: Percent Control
Sequence of PFTK1 (O94921 whole entry): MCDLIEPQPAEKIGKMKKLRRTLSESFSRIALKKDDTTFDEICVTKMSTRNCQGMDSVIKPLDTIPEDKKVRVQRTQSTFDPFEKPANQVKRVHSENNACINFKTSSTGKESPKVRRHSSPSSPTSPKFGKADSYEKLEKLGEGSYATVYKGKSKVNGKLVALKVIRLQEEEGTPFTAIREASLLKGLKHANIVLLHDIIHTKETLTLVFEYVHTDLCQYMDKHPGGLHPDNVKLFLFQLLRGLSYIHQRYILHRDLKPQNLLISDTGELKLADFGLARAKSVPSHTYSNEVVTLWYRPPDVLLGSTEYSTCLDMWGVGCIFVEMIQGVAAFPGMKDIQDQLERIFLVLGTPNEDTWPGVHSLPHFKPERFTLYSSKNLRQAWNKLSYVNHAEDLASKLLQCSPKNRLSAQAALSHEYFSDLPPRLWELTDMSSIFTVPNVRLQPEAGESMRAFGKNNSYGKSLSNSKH
Description: as §1

[10] = target: PRKG1 (Homo sapiens, UniProt Q13976); conditions: 1000 nM, read-out: Percent Control
Description: as §1

[11] = target: MST4 (Homo sapiens, UniProt Q9P289); conditions: 1000 nM, read-out: Percent Control
Description: as §1

[12] = target: MKNK1 (Homo sapiens, UniProt Q9BUB5); conditions: 1000 nM, read-out: Percent Control
Description: as §1

[13] = target: NEK4 (Homo sapiens, UniProt P51957); conditions: compound concentration 100 nM; Entrez NEK4; read-out: Percent Control
Description: as §1

[14] = target: PIP5K1C (Homo sapiens, UniProt O60331); conditions: compound concentration 100 nM; Entrez PIP5K1C; read-out: Percent Control
Description: as §1

[15] = target: AKT2 (Homo sapiens, UniProt P31751); conditions: read-out: Percent Control
Sequence of AKT2 (P31751 whole entry): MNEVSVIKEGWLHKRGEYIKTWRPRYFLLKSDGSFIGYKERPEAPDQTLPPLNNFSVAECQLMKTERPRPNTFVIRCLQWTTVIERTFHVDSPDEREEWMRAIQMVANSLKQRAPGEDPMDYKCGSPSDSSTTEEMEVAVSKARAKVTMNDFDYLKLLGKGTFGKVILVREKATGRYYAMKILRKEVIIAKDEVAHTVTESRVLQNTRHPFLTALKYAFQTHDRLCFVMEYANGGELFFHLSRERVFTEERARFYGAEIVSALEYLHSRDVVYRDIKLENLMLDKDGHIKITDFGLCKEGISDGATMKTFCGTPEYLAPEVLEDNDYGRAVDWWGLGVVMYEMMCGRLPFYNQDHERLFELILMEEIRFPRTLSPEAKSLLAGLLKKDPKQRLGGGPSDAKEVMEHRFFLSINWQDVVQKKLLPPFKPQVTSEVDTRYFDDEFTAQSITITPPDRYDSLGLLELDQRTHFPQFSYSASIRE
Description: as §1

[16] = target: EPHA1 (Homo sapiens, UniProt P21709); conditions: 1000 nM, read-out: Percent Control
Description: as §1

[17] = target: CSNK1A1L (Homo sapiens, UniProt Q8N752); conditions: 1000 nM, read-out: Percent Control
Description: as §1

[18] = target: MAP3K1 (Homo sapiens, UniProt Q13233); conditions: compound concentration 100 nM; Entrez MAP3K1; read-out: Percent Control
Description: as §1

[19] = target: BRSK1 (Homo sapiens, UniProt Q8TDC3); conditions: 1000 nM, read-out: Percent Control
Description: as §1

[20] = target: TEC (Homo sapiens, UniProt P42680); conditions: compound concentration 100 nM; Entrez TEC; read-out: Percent Control
Description: as §1

[21] = target: PCTK2 (Homo sapiens, UniProt Q00537); conditions: 1000 nM, read-out: Percent Control
Description: as §1

[22] = target: MST1R (Homo sapiens, UniProt Q04912); conditions: 1000 nM, read-out: Percent Control
Description: as §1

[23] = target: MKNK2 (Homo sapiens, UniProt Q9HBH9); conditions: compound concentration 100 nM; Entrez MKNK2; read-out: Percent Control
Description: as §1

[24] = target: HASPIN (Homo sapiens, UniProt Q8TF76); conditions: 1000 nM, read-out: Percent Control
Description: as §1

[25] = target: MST2 (Homo sapiens, UniProt Q13188); conditions: 1000 nM, read-out: Percent Control
Sequence of MST2 (Q13188 whole entry): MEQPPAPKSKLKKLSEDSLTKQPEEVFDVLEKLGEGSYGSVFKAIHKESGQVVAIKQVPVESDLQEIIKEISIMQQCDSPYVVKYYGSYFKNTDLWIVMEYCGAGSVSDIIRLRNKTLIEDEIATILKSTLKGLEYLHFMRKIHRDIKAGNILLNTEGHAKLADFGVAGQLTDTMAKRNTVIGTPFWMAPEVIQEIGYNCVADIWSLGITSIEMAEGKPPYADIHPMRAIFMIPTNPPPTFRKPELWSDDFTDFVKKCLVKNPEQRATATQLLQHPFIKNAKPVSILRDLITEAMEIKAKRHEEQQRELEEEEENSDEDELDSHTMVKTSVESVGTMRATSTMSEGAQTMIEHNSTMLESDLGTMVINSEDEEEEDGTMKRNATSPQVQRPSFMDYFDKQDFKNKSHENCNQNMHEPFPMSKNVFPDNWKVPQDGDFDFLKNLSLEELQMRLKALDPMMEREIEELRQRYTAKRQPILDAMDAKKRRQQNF
Description: as §1

[26] = target: FGR (Homo sapiens, UniProt P09769); conditions: read-out: Percent Control
Sequence of FGR (P09769 whole entry): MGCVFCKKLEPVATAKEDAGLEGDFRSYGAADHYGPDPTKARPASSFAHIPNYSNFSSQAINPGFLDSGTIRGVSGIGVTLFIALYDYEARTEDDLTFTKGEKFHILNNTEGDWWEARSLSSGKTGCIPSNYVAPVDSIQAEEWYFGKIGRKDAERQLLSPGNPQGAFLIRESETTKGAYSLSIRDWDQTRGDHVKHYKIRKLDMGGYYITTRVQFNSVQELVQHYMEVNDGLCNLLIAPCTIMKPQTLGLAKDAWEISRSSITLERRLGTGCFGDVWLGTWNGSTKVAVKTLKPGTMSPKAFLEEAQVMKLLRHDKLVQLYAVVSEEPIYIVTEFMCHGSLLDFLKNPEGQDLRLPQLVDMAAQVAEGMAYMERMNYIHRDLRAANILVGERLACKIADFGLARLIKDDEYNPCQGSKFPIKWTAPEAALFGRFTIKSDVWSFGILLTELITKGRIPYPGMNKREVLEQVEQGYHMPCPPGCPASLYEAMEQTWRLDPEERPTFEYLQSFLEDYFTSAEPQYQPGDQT
Description: as §1

[27] = target: EPHB1 (Homo sapiens, UniProt P54762); conditions: 1000 nM, read-out: Percent Control
Description: as §1

[28] = target: AURKA (Homo sapiens, UniProt O14965); conditions: 1000 nM, read-out: Percent Control
Description: as §1

[29] = target: SRC (Homo sapiens, UniProt P12931); conditions: compound concentration 100 nM; Entrez SRC; read-out: Percent Control
Description: as §1

[30] = target: PDGFRB (Homo sapiens, UniProt P09619); conditions: 1000 nM, read-out: Percent Control
Description: as §1

[31] = target: FGFR2 (Homo sapiens, UniProt P21802); conditions: read-out: Percent Control
Sequence of FGFR2 (P21802 22-821): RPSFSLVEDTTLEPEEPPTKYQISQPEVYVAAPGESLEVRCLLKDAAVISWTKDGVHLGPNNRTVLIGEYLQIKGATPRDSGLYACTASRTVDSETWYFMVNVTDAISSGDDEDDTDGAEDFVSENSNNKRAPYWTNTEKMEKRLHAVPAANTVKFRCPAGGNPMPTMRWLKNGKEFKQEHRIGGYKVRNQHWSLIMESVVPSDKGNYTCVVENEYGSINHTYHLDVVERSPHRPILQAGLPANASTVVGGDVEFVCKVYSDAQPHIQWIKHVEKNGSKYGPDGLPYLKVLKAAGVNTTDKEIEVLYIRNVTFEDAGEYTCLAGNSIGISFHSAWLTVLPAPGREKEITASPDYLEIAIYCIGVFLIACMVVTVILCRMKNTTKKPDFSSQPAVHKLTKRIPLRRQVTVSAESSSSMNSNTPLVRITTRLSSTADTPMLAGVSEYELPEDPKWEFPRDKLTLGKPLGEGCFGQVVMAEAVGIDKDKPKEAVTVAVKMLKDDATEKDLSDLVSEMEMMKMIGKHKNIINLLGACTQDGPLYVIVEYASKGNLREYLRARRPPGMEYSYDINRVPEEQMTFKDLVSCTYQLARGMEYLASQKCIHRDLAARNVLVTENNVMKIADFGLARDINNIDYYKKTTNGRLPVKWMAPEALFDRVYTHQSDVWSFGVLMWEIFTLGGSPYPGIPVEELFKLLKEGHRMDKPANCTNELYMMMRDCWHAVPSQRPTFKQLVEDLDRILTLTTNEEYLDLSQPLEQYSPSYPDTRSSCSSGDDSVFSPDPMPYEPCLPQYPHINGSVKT
Description: as §1

[32] = target: CAMKK1 (Homo sapiens, UniProt Q8N5S9); conditions: 1000 nM, read-out: Percent Control
Sequence of CAMKK1 (Q8N5S9 whole entry): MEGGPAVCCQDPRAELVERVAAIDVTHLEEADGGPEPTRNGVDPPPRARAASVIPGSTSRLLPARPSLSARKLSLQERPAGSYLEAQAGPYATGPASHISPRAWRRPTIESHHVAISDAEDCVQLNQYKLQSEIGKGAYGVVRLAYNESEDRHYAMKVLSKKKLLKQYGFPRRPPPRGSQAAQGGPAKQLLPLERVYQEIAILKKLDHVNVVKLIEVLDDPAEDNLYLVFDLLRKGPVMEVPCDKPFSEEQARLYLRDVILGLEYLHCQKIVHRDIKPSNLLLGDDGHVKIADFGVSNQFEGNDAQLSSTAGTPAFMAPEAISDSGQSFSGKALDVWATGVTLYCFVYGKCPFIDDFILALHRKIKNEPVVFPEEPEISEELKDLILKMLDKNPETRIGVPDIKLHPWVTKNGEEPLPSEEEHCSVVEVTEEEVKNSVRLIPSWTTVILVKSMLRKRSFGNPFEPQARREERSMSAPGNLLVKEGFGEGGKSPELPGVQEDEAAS
Description: as §1

[33] = target: HIPK3 (Homo sapiens, UniProt Q9H422); conditions: 1000 nM, read-out: Percent Control
Description: as §1

[34] = target: AKT3 (Homo sapiens, UniProt Q9Y243); conditions: read-out: Percent Control
Sequence of AKT3 (Q9Y243 whole entry): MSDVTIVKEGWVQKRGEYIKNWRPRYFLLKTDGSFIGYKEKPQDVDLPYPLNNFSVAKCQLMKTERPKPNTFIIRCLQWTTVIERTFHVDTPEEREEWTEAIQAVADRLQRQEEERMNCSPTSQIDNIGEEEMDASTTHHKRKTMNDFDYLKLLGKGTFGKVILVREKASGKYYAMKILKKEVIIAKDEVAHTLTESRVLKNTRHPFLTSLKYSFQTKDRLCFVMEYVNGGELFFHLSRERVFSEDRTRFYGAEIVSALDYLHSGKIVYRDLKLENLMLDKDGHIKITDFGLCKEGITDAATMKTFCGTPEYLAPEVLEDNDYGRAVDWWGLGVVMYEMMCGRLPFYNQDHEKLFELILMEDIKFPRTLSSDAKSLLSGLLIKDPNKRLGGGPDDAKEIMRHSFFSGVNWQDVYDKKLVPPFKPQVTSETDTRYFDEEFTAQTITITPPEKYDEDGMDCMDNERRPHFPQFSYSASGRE
Description: as §1

[35] = target: MRCKB (Homo sapiens, UniProt Q9Y5S2); conditions: compound concentration 100 nM; Entrez CDC42BPB; read-out: Percent Control
Description: as §1

[36] = target: PRKCH (Homo sapiens, UniProt P24723); conditions: compound concentration 100 nM; Entrez PRKCH; read-out: Percent Control
Description: as §1

## CN1C(=O)[C@@H](N2CCc3c(nn(Cc4ccccc4)c3C(N)=O)C2=O)COc2cc(Cl)ccc21 [Compound 10, (S)-2-benzyl-6-(8-chloro-5-methyl-4-oxo-2,3,4,5-tetrahydrobenzo[b][1,4]oxazepin-3-yl)-7-oxo-4,5,6,7-tetrahydro-2H-pyrazolo[3,4-c]pyridine-3-carboxamide]
[1]
  remaining binding at 1 µM: 90%
[2]
  remaining binding at 1 µM: 94%
[3]
  remaining binding at 1 µM: 91%
[4]
  remaining binding at 1 µM: 90%
[5]
  remaining binding at 1 µM: 94%
[6]; 1000 nM
  remaining binding at 1 µM: 100%
[6]; compound concentration 100 nM, Entrez BMPR1B
  remaining binding at 0.1 µM: 88%
[7]
  remaining binding at 0.1 µM: 100%
[8]
  remaining binding at 1 µM: 97%
[9]
  remaining binding at 1 µM: 79%
[10]
  remaining binding at 1 µM: 91%
[11]
  remaining binding at 1 µM: 92%
[12]
  remaining binding at 1 µM: 77%
[13]
  remaining binding at 0.1 µM: 91%
[14]
  remaining binding at 0.1 µM: 100%
[15]; 1000 nM
  remaining binding at 1 µM: 100%
[15]; compound concentration 100 nM, Entrez AKT2
  remaining binding at 0.1 µM: 90%
[16]
  remaining binding at 1 µM: 87%
[17]
  remaining binding at 1 µM: 85%
[18]
  remaining binding at 0.1 µM: 100%
[19]
  remaining binding at 1 µM: 85%
[20]
  remaining binding at 0.1 µM: 86%
[21]
  remaining binding at 1 µM: 90%
[22]
  remaining binding at 1 µM: 91%
[23]
  remaining binding at 0.1 µM: 94%
[24]
  remaining binding at 1 µM: 96%
[25]
  remaining binding at 1 µM: 80%
[26]; 1000 nM
  remaining binding at 1 µM: 100%
[26]; compound concentration 100 nM, Entrez FGR
  remaining binding at 0.1 µM: 77%
[27]
  remaining binding at 1 µM: 94%
[28]
  remaining binding at 1 µM: 72%
[29]
  remaining binding at 0.1 µM: 85%
[30]
  remaining binding at 1 µM: 87%
[31]; 1000 nM
  remaining binding at 1 µM: 100%
[31]; compound concentration 100 nM, Entrez FGFR2
  remaining binding at 0.1 µM: 100%
[32]
  remaining binding at 1 µM: 74%
[33]
  remaining binding at 1 µM: 94%
[34]; 1000 nM
  remaining binding at 1 µM: 100%
[34]; compound concentration 100 nM, Entrez AKT3
  remaining binding at 0.1 µM: 100%
[35]
  remaining binding at 0.1 µM: 95%
[36]
  remaining binding at 0.1 µM: 92%
